The values below come from PubChem BioAssay AID192 (DTP/NCI, 2004).

Values joined by “and” are separate entries in the source; they are usually repeats but may differ in a detail not shown here. Equal entries are not always repeated. Inconclusive results and toxic doses are left out.

The subject of this assay is BDF1 mice, B16 melanoma ip, median survival T/C. The experiment in a line: NCI In Vivo Anticancer Drug Screen. Data for tumor model B16 Melanoma (intraperitoneal) in B6D2F1 (BDF1) mice. The note with it: endpoint: median survival time, higher = longer survival. Summed up:
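The ratio T/C compares compound-treated mice with vehicle-treated controls, using survival or tumor size as the endpoint in a transplantable tumor model.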

The mark [1] stands for this setting: dose: 50.0 mg/kg/injection, schedule: Q01DX009 (ip), vehicle: saline with Tween-80.
Setting [2] is: dose: 75.0 mg/kg/injection, schedule: Q01DX009 (ip), vehicle: saline with Tween-80.
[3] abbreviates: dose: 100.0 mg/kg/injection, schedule: Q01DX009 (ip), vehicle: saline with Tween-80.
The mark [4] stands for this setting: dose: 50.0 mg/kg/injection, schedule: Q01DX009 (ip), vehicle: saline.
The mark [5] stands for this setting: dose: 100.0 mg/kg/injection, schedule: Q01DX009 (ip), vehicle: saline.
Where [6] appears, read: dose: 200.0 mg/kg/injection, schedule: Q01DX009 (ip), vehicle: saline.
Where [7] appears, read: dose: 6.25 mg/kg/injection, schedule: Q01DX009 (ip), vehicle: saline.
Where [8] appears, read: dose: 12.5 mg/kg/injection, schedule: Q01DX009 (ip), vehicle: saline.
Where [9] appears, read: dose: 25.0 mg/kg/injection, schedule: Q01DX009 (ip), vehicle: saline.
[10] abbreviates: dose: 12.5 mg/kg/injection, schedule: Q01DX009 (ip), vehicle: saline with Tween-80.
[11] abbreviates: dose: 25.0 mg/kg/injection, schedule: Q01DX009 (ip), vehicle: saline with Tween-80.

In the case of `Cc1nc(-c2ccccc2)nc2c1CCO2`, the T/C is 92 % of control (dose: 33.0 mg/kg/injection, schedule: Q01DX009 (ip), vehicle: saline with Tween-80); 93 % of control under setting [1]; 89 % of control under setting [2]; 122 % of control under setting [3].
For the molecule `CN(C)CCCN1c2ccccc2Sc2ccccc21`, the T/C was 111 % of control (dose: 4.6 mg/kg/injection, schedule: Q01DX009 (ip), vehicle: saline); 111 % of control (dose: 9.3 mg/kg/injection, schedule: Q01DX009 (ip), vehicle: saline); 101 % of control (dose: 18.75 mg/kg/injection, schedule: Q01DX009 (ip), vehicle: saline with Tween-80); 120 % of control (dose: 18.75 mg/kg/injection, schedule: Q01DX009 (ip), vehicle: saline); 111 % of control (dose: 35.5 mg/kg/injection, schedule: Q01DX009 (ip), vehicle: saline); 97 % of control (dose: 37.5 mg/kg/injection, schedule: Q01DX009 (ip), vehicle: saline with Tween-80). Moreover, the T/C under setting [2] was 95 % of control.
For the molecule `CC(=O)Nc1ccc2c(Nc3ccc(NS(C)(=O)=O)cc3)c3ccccc3nc2c1`, the T/C is 112 % of control (dose: 3.8 mg/kg/injection, schedule: Q01DX009 (ip), vehicle: saline sonified); 110 % of control (dose: 7.5 mg/kg/injection, schedule: Q01DX009 (ip), vehicle: saline sonified); 162 % of control (dose: 15.0 mg/kg/injection, schedule: Q01DX009 (ip), vehicle: saline with Tween-80); 164 % of control (dose: 30.0 mg/kg/injection, schedule: Q01DX009 (ip), vehicle: saline sonified); 185 % of control (dose: 30.0 mg/kg/injection, schedule: Q01DX009 (ip), vehicle: saline with Tween-80); 155 % of control (dose: 200.0 mg/kg/injection, schedule: Q01DX001 (ip), vehicle: saline sonified). Besides, the T/C (dose: 400.0 mg/kg/injection, schedule: Q01DX001 (ip), vehicle: saline sonified) was 194 % of control.
As for `Clc1ccc2c3c(cccc13)CC2`, the T/C runs as follows: (dose: 5.0 mg/kg/injection, schedule: Q01DX009 (ip), vehicle: saline with Tween-80) 87 % of control; (dose: 10.0 mg/kg/injection, schedule: Q01DX009 (ip), vehicle: saline with Tween-80) 92 % of control; (dose: 20.0 mg/kg/injection, schedule: Q01DX009 (ip), vehicle: saline with Tween-80) 87 % of control; (dose: 40.0 mg/kg/injection, schedule: Q01DX009 (ip), vehicle: saline with Tween-80) 87 % of control.
Turning to `CCOc1cc[n+]([O-])cc1`, the T/C is 103 % of control under setting [4], 104 % of control under setting [5] and 102 % of control under setting [6].
With `c1ccc(C2CN3CCSC3=N2)cc1` (stereo unspecified), the T/C by setting is: (dose: 1.56 mg/kg/injection, schedule: Q01DX009 (ip), vehicle: saline) 103 % of control; (dose: 3.12 mg/kg/injection, schedule: Q01DX009 (ip), vehicle: saline) 104 % of control; under setting [7], 96 % of control; under setting [8], 94 % of control; under setting [9], 100 % of control.
As to `Cc1noc2nccnc12`, the T/C by setting is: under setting [10], 92 % of control; under setting [11], 95 % of control; under setting [1], 88 % of control.
Consider `O=C(CCl)Nc1nccs1`, for which the T/C is, setting by setting: under setting [10], 103 % of control; under setting [11], 100 % of control; under setting [1], 93 % of control; under setting [3], 87 % of control.
With `NC(=O)NOCC1NC(=O)C(CONC(N)=O)NC1=O` (stereo unspecified), the T/C under setting [5] was 98 % of control; the T/C under setting [6] is 94 % of control; the T/C (dose: 200.0 mg/kg/injection, schedule: Q04DX003 (ip), vehicle: saline) was 102 % of control; the T/C (dose: 400.0 mg/kg/injection, schedule: Q01DX009 (ip), vehicle: saline) was 97 % of control; the T/C (dose: 400.0 mg/kg/injection, schedule: Q04DX003 (ip), vehicle: saline) was 94 % of control.
`CC(=O)OC1C(C)OC(OC(=O)C2CCC3C(C2)OC2(CC(OC(=O)/C=C/c4ccccc4)C(C)CO2)C32CO2)C(OC2OC(C)C(O)C(OC(C)=O)C2O)C1O` (stereo unspecified): the T/C is 152 % of control (dose: 6.0 mg/kg/injection, schedule: Q01DX009 (ip), vehicle: saline + alcohol); 186 % of control (dose: 12.0 mg/kg/injection, schedule: Q01DX009 (ip), vehicle: saline + alcohol); 205 % of control (dose: 24.0 mg/kg/injection, schedule: Q01DX009 (ip), vehicle: saline + alcohol); 193 % of control (dose: 48.0 mg/kg/injection, schedule: Q01DX009 (ip), vehicle: saline + alcohol).
Consider `Cc1ccc2c(c1)n([O-])c1cc(Cl)ccc1[n+]2=O`, for which the T/C is, setting by setting: under setting [10], 115 % of control; under setting [3], 122 % of control.
Regarding `Cc1cc(NS(=O)(=O)c2ccc(N=Nc3cc(N=Nc4ccc(S(=O)(=O)Nc5cc(C)nc(C)n5)cc4)c4c(NC(=O)C(Cl)Cl)cccc4c3OC(=O)C(Cl)Cl)cc2)nc(C)n1` (tested in a mixture with another compound), the T/C (dose: 12.5 mg/kg/injection, schedule: Q01DX009 (ip), vehicle: suspension in saline) was 98 % of control; the T/C (dose: 25.0 mg/kg/injection, schedule: Q01DX009 (ip), vehicle: suspension in saline) was 95 % of control; the T/C (dose: 50.0 mg/kg/injection, schedule: Q01DX009 (ip), vehicle: suspension in saline) is 97 % of control; the T/C (dose: 100.0 mg/kg/injection, schedule: Q01DX009 (ip), vehicle: suspension in saline) is 95 % of control; the T/C (dose: 200.0 mg/kg/injection, schedule: Q01DX009 (ip), vehicle: suspension in saline) is 93 % of control; the T/C (dose: 400.0 mg/kg/injection, schedule: Q01DX009 (ip), vehicle: suspension in saline) was 87 % of control.
In the case of `O=C(C[n+]1ccc2ccccc2c1)c1ccccc1`, the T/C is, setting by setting: under setting [8], 86 % of control; under setting [9], 86 % of control; under setting [4], 100 % of control.
With `NNC(=O)c1ccc(-c2ccccc2)cc1`, the T/C (dose: 12.5 mg/kg/injection, schedule: Q01DX009 (ip), vehicle: other) is 93 % of control; the T/C (dose: 25.0 mg/kg/injection, schedule: Q01DX009 (ip), vehicle: other) is 95 % of control; the T/C (dose: 50.0 mg/kg/injection, schedule: Q01DX009 (ip), vehicle: other) was 100 % of control; the T/C (dose: 100.0 mg/kg/injection, schedule: Q01DX009 (ip), vehicle: other) was 100 % of control.
For `CCCSc1ncnc2nc[nH]c12`, the T/C under setting [10] was 102 % of control; the T/C under setting [11] is 102 % of control; the T/C under setting [1] was 97 % of control and 115 % of control; the T/C under setting [3] is 107 % of control.
For the molecule `O=S(=O)(O)C1CCC[N-]C1.O=S(=O)(O)C1CCC[N-]C1.[Cl][Pt+2]([Cl])([Cl])[Cl]` (stereo unspecified), the T/C was 110 % of control (dose: 6.25 mg/kg/injection, schedule: Q01DX009 (ip), vehicle: saline with Tween-80); 95 % of control under setting [10]; 103 % of control under setting [11]; 106 % of control under setting [1]; 105 % of control under setting [3].
As for `c1nnc(NCNc2nncs2)s1`, the T/C under setting [7] is 108 % of control; the T/C under setting [9] is 122 % of control; the T/C (dose: 50.0 mg/kg/injection, schedule: Q04DX003 (ip), vehicle: saline) is 109 % of control; the T/C (dose: 100.0 mg/kg/injection, schedule: Q04DX003 (ip), vehicle: saline) was 119 % of control.
Turning to `Cc1ccc(CO)cc1C`, the T/C is 100 % of control (dose: 50.0 mg/kg/injection, schedule: Q04DX003 (ip), vehicle: saline with Tween-80); 102 % of control (dose: 100.0 mg/kg/injection, schedule: Q04DX003 (ip), vehicle: saline with Tween-80); 104 % of control (dose: 200.0 mg/kg/injection, schedule: Q04DX003 (ip), vehicle: saline with Tween-80).
Consider `CC(=O)[O][Sn]([CH2]c1ccccc1)([CH2]c1ccccc1)[CH2]c1ccccc1`, for which the T/C reads like this: (dose: 1.5 mg/kg/injection, schedule: Q01DX009 (ip), vehicle: other) 101 % of control; (dose: 3.0 mg/kg/injection, schedule: Q01DX009 (ip), vehicle: other) 96 % of control; (dose: 6.0 mg/kg/injection, schedule: Q01DX009 (ip), vehicle: other) 103 % of control; (dose: 6.25 mg/kg/injection, schedule: Q01DX009 (ip), vehicle: other) 111 % of control.
